Patent US11845807B2, “Method and carrier complexes for delivering molecules to cells” (priority 2003, dated 2023)
Entries after “also recorded” stand apart in the source; their conditions may differ. Square brackets hold non-standard residues; d marks the D form. Peptide text beside a SMILES is read from it. Dmt = Cc1cc(O)cc(C)c1C[C@H](N)C(=O)O

What was measured:
[1] = system: Caco-2 cells; experiment: Assay for peptide uptake in Caco-2 cells; type: cell-based
Source text: Assay for Peptide Uptake.

[2] = system: cell surface receptors, membranes prepared from Caco-2 cells; experiment: Radioligand binding assay using Caco-2 cell membranes; conditions: 15-960 pM radioligand, 60 min at 25° C.; listed as [^3H][Dmt^1]DALDA
Procedure: Radioligand Binding Assay Using Cell Membranes. […] After 4 days of culture, cells were washed two times with PBS buffer and then scraped off. Cells were centrifuged at 500 g for 5 min and the pellet stored at −80° C. Cells were homogenized in ice-cold 50 mM Tris-HCl buffer (5 μg/ml leupeptin, 2 μg/ml chymostatin, 10 μg/ml bestatin, and 1 mM EGTA, pH 7.4). The homogenate was centrifuged at 36,000 g for 20 min. The pellets were resuspended with 50 mM Tris-HCl buffer. […] Free radioligand was separated from bound radioligand by rapid filtration through GF/B filters (Whatman, Maidstone, UK) with a cell harvester (Brandel Inc., Gaithersburg, Md.). Filters were washed three times with 10 ml of Tris buffer, and radioactivity was determined by liquid scintillation counting. Binding affinities (Kd) and receptor number (Bmax) were determined using nonlinear regression (GraphPad Software, San Diego, Calif.).

[3] = system: Caco-2 cells; experiment: Assay for peptide efflux from Caco-2 cells; type: cell-based
Procedure: Assay for Peptide Efflux from CaCo-2 Cells. […] Cells were then washed four times with 1 ml of ice-cold incubation solution to terminate uptake and then incubated with 0.5 ml of MEM for 1 h at either 37 or 4° C. to measure the efflux of peptide from cells to the incubation medium. The amount of radioactivity was determined in cell lysates and in the incubation medium.

[4] = Peptide translocation across Caco-2 monolayers (Transwell, apical-to-basolateral); type: in vitro ADME; conditions: human, Caco-2; apical-to-basolateral; read-out: apparent permeability coefficient
Procedure: (§1) Assay for Peptide Translocation across Caco-2 Monolayers. Monolayers of Caco-2 cells were prepared as described previously (Irie et al., J. Pharmacol. Exp. Ther. 2001, 298: 711-717), Caco-2 cells (2×10^5) were seeded on microporous membrane filters (24 mm, […]) inside Transwell cell culture chambers (Corning Glassworks, Corning, N.Y.). Each Transwell chamber was filled with 1.5 ml of medium in the apical compartment and 2.5 ml in the basolateral compartment. The cell monolayers were given fresh medium every 1 to 2 days and were used on day 28 for transport experiments.
(§2) The apparent permeability coefficient was calculated according to the following equation: Papp=X/(t·A·Co), where X/t is the rate of uptake in the receiver compartment, A is the diffusion area (4.72 cm^2), and Co is the initial concentration in the donor compartment.

[5] = system: Caco-2 monolayer; experiment: as above; type: in vitro ADME; conditions: 60 min
Procedure: as §1, §2

[6] = system: Huh7 cells; experiment: GFP uptake into cells on co-incubation with peptide or peptide-SMCC conjugate; type: cell-based; conditions: 3 μg GFP + 40 μl peptide, 60 min at 37° C., then 24 hours; versus GFP alone
Procedure: Carrier complex formation by physical mixing of protein and [Dmt1]DALDA-SMCC conjugate. The [Dmt^1]DALDA-SMCC conjugate was prepared as described above. The protein molecules (i.e. green fluorescent protein, GFP) were mixed with the [Dmt^1]DALDA-SMCC conjugate for 15 min at room temperature before use in cellular uptake studies.
Assay for protein uptake into cells when co-incubated with [Dmt1]DALDA-SMCC conjugate. […] 2 ml of cell medium was then added to cells which were incubated for an additional 24 hours in the cell culture incubator. After incubation, cells were washed four times in cell medium and GFP retained in living cells was visualized, by confocal laser scanning microscopy. Excitation was performed at 340 nm and emission was measured at 520 nm.
2 ml of cell medium was then added to cells and incubated for an additional 24 hours in cell culture incubator. After incubation, cells were washed four times in cell medium and GFP retained in living cells was visualized by confocal laser scanning microscopy. Excitation was performed at […] and emission was measured at […].

[7] = system: N2A cells; experiment: Cell viability, MTT assay, N2A cells; type: cell-based; conditions: 1 nM to 10 μM, 24 h
[8] = system: SH-SY5Y cells; experiment: Cell viability, MTT assay, SH-SY5Y cells; type: cell-based; conditions: 1 nM to 10 μM, 24 h
[9] = system: Caco-2 cells; experiment: Cell viability, MTT assay, Caco-2 cells; type: cell-based; conditions: 1 nM to 10 μM, 24 h
[10] = system: Caco-2, SH-SY5Y, HEK293, and CRFK cells; conditions: 250 nM, 1 h at 37° C., acid-wash
Procedure: Assay for Peptide Uptake. […] Monolayers of cells were grown on 12-well plates (5×10^5 cells/well) coated with collagen for 3 days. […] At the end of the incubation period, cells were washed four times with HBSS, and 0.2 ml of 0.1 N NaOH with 1% SDS was added to each well. The cell contents were then transferred to scintillation vials and radioactivity was counted. […] Before cell lysis, cells were incubated. with 0.2 ml of 0.2 M acetic acid/0.05 M NaCl for 5 min on ice.
An acid-wash step was included to distinguish internalized radioactivity (acid-resistant) from surface-bound radioactivity (acid-sensitive).

[11] = system: peptidase; conditions: Szeto et al., J. Pharmacol. Exp. Ther., 2001; cited from earlier work
[12] = system: cells in culture; conditions: similar studies, cell line not stated
[13] = system: Huh7 cells; experiment: RNA uptake into cells when mixed with peptide-SMCC conjugate; type: cell-based; conditions: for increase of uptake of RNA oligo on co-incubation: 11-base RNA oligo
Procedure: Carrier complex formation by physical mixing of RNA and [Dmt^1]DALDA-SMCC conjugate. The [Dmt^1]DALDA-SMCC conjugate was prepared as described above. The RNA molecules were mixed with the [Dmt^1]DALDA-SMCC conjugate in PBS for 15 min at room temperature before use in cellular uptake studies.
Assay for uptake of RNA uptake into cells when mixed with [Dmt1]DALDA-cross-linker conjugate. Huh7 cells (1×10^6 cells/well) were washed with DMEM and then incubated with 1.0 ml DMEM containing [^32P]RNA oligo alone or with 40 μl [Dmt^1]DALDA-SMCC conjugate, for 60 min at 37° C. or 4° C. Cells were then washed four times in DMEM and one time in sodium acetate solution to reduce nonspecific binding before incubated in lysis buffer for 30 min and radioactivity determined in the cell lysate.
The carrier complex was formed by physical mixing of RNA and [Dmt^1]DALDA-SMCC conjugate. […] A single strand 11-mer [^32P]RNA oligo was mixed with the [Dmt^1]DALDA-SMCC conjugate for 15 min at room temperature before use in cellular uptake studies.
Huh7 cells (1×10^6 cells/well) were washed with DMEM and then incubated with 1.0 ml DMEM containing the [^32P]RNA oligo (100,000 cpm) alone or with […] [Dmt^1]DALDA-SMCC conjugate at 37° C. or 4° C. Cells were then washed four times in DMEM and one time in sodium acetate solution to remove nonspecific binding before incubated in lysis buffer for 30 min and retained radioactivity determined.

[14] = system: Huh7 cells; experiment: Cell viability by trypan blue uptake; type: cell-based; conditions: 50 μl of 1 mM conjugate in 1 ml medium, 24 hours at 37° C.
Procedure: Trypan blue is only taken by cells with increased membrane permeability. Huh7 cells (1×10^6) were washed three times in DMEM, and 1 ml of fresh medium, or media containing 50 μl of 1 mM [Dmt^1]DALDA-SMCC conjugate, [D-Arg-Dmt-Lys-Phe-NH2]-SMCC conjugate, or [Phe^1]DALDA-SMCC conjugate, and incubated at 37° C. for 24 hours at 5% CO2. Cells were then washed three times with DMEM, and 1 ml of 0.4% trypan blue was added to the cells for 2 minutes. Excessive dye was removed by washing cells in cell medium and the cells were examined by light microscopy.

[15] = system: Huh7 cells; experiment: Assay of apoptosis (Hoechst dye); type: cell-based; conditions: 50 μl of 1 mM conjugate, 24 hours at 37° C., versus PBS control
Procedure: Assay of apoptosis. Apoptosis was determined with the use of Hoechst dye (Molecular Probes, Eugene, Oreg.) for staining apoptotic nuclei. The Hoechst dye was loaded to cell cultures and incubated for 15 min. Excessive Hoechst dye was removed by washing cells with cell medium. (free of pH indicator) the cells examined using fluorescent microscopy (excitation at 350 nm and emission at 461 nm).
After the incubation, 1 ml of Hoechst dye (Molecular Probes, Eugene, Oreg.) for staining apoptotic nuclei were added to cells and incubated for additional 15 min. Excessive Hoechst dye was removed by washing cells with cell medium (free of pH indicator) and cells treated with [Dmt^1]DALDA-SMCC conjugate were compared with control cells using fluorescent microscopy (excitation at 350 nm and emission at […]). Apoptosis is indicated by concentration of fluorescence in the nuclei.

Cc1cc(O)cc(C)c1C[C@H](N)C(=O)N[C@H](CCCNC(=N)N)C(=O)N[C@@H](Cc1ccccc1)C(=O)N[C@@H](CCCCN)C(N)=O [[Dmt^1]DALDA, 2′,6-Dmt-D-Arg-Phe-Lys-NH2]
concentration dependence of uptake ([1]; 1 μM-3 mM, 1 h at 37° C.): concentration-dependent over a wide range of concentrations | effect of verapamil (P-glycoprotein inhibitor) on cellular uptake ([1]; 100 μM verapamil): no effect | increase of uptake by DEPC ([1]; 0.2 mM DEPC): 34 fold | effect of 4° C. on uptake ([1]; 4° C. versus 37° C.): slower compared with 37 °C | uptake at 4° C. by 45 min ([1]; 4° C., 45 min, compared with 37° C.): 76.5% | uptake at 4° C. by 1 h ([1]; 4° C., 1 h, compared with 37° C.): 86,3% | time at which peptide was first observed in cell lysate ([1]; 37° C., 250 nM): 5 min | fraction resistant to acid-wash (presumed inside the cell) ([1]; 1 h at 37° C., acid-wash before lysis): 80.8% | total amount recovered in cell lysate, of the total drug ([1]; after 1-h incubation, 37° C.): about 1% | effect of pH on uptake ([1]; pH varied from 4.0 to 7.4, 1 h at 37° C.): unchanged | specific binding to Caco-2 membranes [2]: No high-affinity specific binding was observed | effect of verapamil (P-glycoprotein inhibitor) on efflux ([3]; 100 μM verapamil): not affected | effect of DEPC on efflux ([3]; 0.2 mM DEPC, 10 min at 25° C. before loading): decreased | effect of temperature (4° C.) on efflux ([3]; 4° C. versus 37° C.): temperature had a significant effect | peptide effluxed into medium ([3]; preloaded 1 h, 1 h efflux at 37° C.): 80% | Papp A→B at 0.2 μM [4]: 12.4 ×10⁻⁶ cm/s | percentage translocated from the apical to the basolateral side [5]: 10.4% | uptake of GFP into cells (green fluorescence) [6]: moderately increased green fluorescence within the cell cytoplasm | cell viability (MTT assay) [7]: no effect on cell viability; also recorded: not toxic to cells in culture | cell viability (MTT assay) [8]: no effect on cell viability | cell viability (MTT assay) [9]: no effect on cell viability | internalization (acid-resistant radioactivity) in different cell lines [10]: taken up extensively in all cell types | resistance against peptidase degradation [11]: resistant against peptidase degradation

Cc1cc(O)cc(C)c1C[C@H](NC(=O)[C@H](N)CCCNC(=N)N)C(=O)N[C@@H](CCCCN)C(=O)N[C@@H](Cc1ccccc1)C(N)=O [[D-Arg-Dmt-Lys-Phe-NH2], D-Arg-2′6′Dmt-Lys-Phe-NH2] (H-[dR][Dmt]KF-NH2)
toxicity to cells / cell viability [12]: no effect on cell viability

Cc1cc(O)cc(C)c1C[C@H](N)C(=O)N[C@H](CCCNC(=N)N)C(=O)N[C@@H](Cc1ccccc1)C(=O)N[C@@H](CCCCNC(=O)C1CCC(CN2C(=O)C=CC2=O)CC1)C(N)=O (stereo partly drawn) [[Dmt^1]DALDA-SMCC conjugate]
uptake of GFP into cells (green fluorescence) [6]: even greater uptake of GFP; also recorded: enhances uptake of green fluorescent protein | increase of uptake of RNA oligo on co-incubation ([13]; 15 min at 37° C.): 10 fold | increase of uptake of RNA oligo on co-incubation ([13]; 60 min at 37° C.): ~20 fold | increase of uptake of 11-mer RNA on co-incubation ([13]; FIG. 13 experiment, 60 min at 37° C.): 22 fold | trypan blue uptake (cell viability) [14]: No increase in trypan blue uptake | apoptosis (Hoechst staining of nuclei) [15]: did not induce apoptosis; also recorded: does not induce apoptosis
